Results on three compounds are retold here after patent US20230265151A1, “GIP/GLP1 CO-AGONIST COMPOUNDS” (priority 2020, published 2023).

Where two headings read alike, the source gives them in different places. *1 amine or outer side, *2 acyl side, *3 side chain or, on linkers, in order; H or OH if unused. Where a SMILES comes first, the peptide text is derived from it. Side-chain parts run from the residue outwards. [ ]: non-standard residue; d: D form. The star is where a group is joined. αMePhe(2-F) = C[C@](N)(Cc1ccccc1F)C(=O)O; γGlu = O=C(O)[C@H](CCC(=O)[*:2])N[*:1]; αMeY = C[C@](N)(Cc1ccc(O)cc1)C(=O)O; αMeF = C[C@](N)(Cc1ccccc1)C(=O)O; αMeL = CC(C)C[C@](C)(N)C(=O)O; Lauroyl = CCCCCCCCCCCC(=O)*; Orn = NCCC[C@H](N)C(=O)O; AEEA = NCCOCCOCC(=O)O; Aib = CC(C)(N)C(=O)O

The target in assay [1] is T1, human GLP-1 receptor (hGLP-1R) (Homo sapiens, UniProt P43220).
T1 construct: expressed in transfected cells; crude membranes
T1 sequence (P43220 24-463): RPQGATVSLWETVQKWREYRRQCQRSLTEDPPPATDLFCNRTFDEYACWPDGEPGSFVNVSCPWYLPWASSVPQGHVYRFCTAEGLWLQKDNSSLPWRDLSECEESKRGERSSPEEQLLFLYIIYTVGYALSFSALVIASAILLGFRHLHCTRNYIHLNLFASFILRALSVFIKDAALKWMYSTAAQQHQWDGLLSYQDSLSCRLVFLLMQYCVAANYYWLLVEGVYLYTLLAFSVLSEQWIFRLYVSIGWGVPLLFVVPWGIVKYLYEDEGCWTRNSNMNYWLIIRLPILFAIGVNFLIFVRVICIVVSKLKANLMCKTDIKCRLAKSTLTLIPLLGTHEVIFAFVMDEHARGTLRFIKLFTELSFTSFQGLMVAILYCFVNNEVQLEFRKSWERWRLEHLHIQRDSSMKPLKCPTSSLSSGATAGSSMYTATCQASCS
The assay is described as follows: [125I]-GLP-1 binding, SPA with membranes of HEK293 cells expressing hGLP-1R. Particulars: human GLP-1R; geometric mean (SEM, n); read-out: Binding Affinity Ki, nM (SEM, n) hGLP-1R.

The target in assay [2] is T2, human GIP receptor (hGIPR) (Homo sapiens, UniProt P48546).
T2 construct: expressed in transfected cells; crude membranes
T2 sequence (P48546 22-466): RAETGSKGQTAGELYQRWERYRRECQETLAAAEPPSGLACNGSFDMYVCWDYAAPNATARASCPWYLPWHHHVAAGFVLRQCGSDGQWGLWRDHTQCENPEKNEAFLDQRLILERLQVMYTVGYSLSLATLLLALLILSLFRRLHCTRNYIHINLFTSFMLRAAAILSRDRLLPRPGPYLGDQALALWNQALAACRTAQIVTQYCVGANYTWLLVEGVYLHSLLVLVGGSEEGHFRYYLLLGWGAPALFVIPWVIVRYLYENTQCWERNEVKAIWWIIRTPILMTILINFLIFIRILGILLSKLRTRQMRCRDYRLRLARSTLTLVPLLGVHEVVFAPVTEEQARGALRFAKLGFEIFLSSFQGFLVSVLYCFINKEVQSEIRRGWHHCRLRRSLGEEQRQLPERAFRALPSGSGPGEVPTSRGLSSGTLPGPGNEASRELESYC
The assay is described as follows: [125I]-GIP binding, SPA with membranes of CHO cells expressing hGIPR. The settings on record: human GIPR; geometric mean (SEM, n); read-out: Binding Affinity Ki, nM (SEM, n) hGIPR.

The target in a further assay is T3, hGIPR (Homo sapiens, UniProt P48546).
T3 construct: expressed in transfected cells
T3 sequence (P48546 22-466): T2 sequence (P48546 22-466)
The assay is described as follows: Functional cAMP formation (HTRF) in HEK-293 clonal cells expressing hGIPR, 0.1% bovine casein, without or with 1.0% human serum albumin. The settings on record: 37° C.; for EC50: read-out: hGIPR EC50, nM (SEM, n); for Emax: percent of maximal response to GIP(1-42)NH2, read-out: hGIPR Emax, % ± SEM. Type of assay: cell-based. Put shortly:
(§1)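 Cells were stimulated with peptide for 30 min at 37° C, then lysed in buffer carrying cAMP-d2 and anti-cAMP Eu3+-cryptate for a competitive HTRF read after at least 60 min at room temperature. The 665/620 nm ratio was converted to nM cAMP against a standard curve.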
On the technique in general: Changes in cAMP serve as a functional read-out for many G protein-coupled receptors.

For the next assay, the target named is T4, hGCGR (Homo sapiens, UniProt P47871).
T4 construct: expressed in transfected cells
T4 sequence (P47871 26-477): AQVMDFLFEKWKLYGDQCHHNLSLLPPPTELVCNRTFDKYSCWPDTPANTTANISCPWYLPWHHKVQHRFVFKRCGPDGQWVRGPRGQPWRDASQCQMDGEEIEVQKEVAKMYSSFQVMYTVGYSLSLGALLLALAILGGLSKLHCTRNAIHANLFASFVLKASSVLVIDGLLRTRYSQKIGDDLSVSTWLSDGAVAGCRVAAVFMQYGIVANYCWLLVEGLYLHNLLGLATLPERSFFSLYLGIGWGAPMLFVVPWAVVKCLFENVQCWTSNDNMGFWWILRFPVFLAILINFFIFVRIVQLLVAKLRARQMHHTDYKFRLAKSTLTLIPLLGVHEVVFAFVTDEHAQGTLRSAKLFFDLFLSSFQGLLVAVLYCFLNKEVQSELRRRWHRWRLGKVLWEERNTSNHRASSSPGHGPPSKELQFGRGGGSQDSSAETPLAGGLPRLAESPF
Briefly: Functional cAMP formation (HTRF) in HEK-293 clonal cells expressing hGCGR, 0.1% bovine casein, without or with 1.0% human serum albumin. Type of assay: cell-based. Particulars: read-out: hGCGR EC50, nM (SEM, n). The method in brief:
as §1

The next assay has as its target hGLP-1R (Homo sapiens, UniProt P43220). Briefly: Functional cAMP formation (HTRF) in HEK-293 clonal cells expressing hGLP-1R, 0.1% bovine casein, without or with 1.0% human serum albumin. Particulars: for EC50: geometric mean, read-out: hGLP-1R EC50, nM (SEM, n); for Emax: percent of maximal response to GLP-1(7-36)NH2, read-out: hGLP-1R Emax, % ± SEM. It counts as cell-based. On the set-up: expressed in transfected cells. Put shortly: as §1

Where [3] appears, read: HEK293, 0.1% bovine casein and 1.0% human serum albumin.
Setting [4] is: 0.1% bovine casein and 1.0% human serum albumin, 37° C., geometric mean.
Setting [5] is: cAMP, 0.1% bovine casein (no human serum albumin), geometric mean.
Setting [6] is: cAMP, 37° C., 0.1% bovine casein (no human serum albumin), geometric mean.
The mark [7] stands for this setting: cAMP, 37° C., 0.1% bovine casein (no human serum albumin).

Sequence of hGLP-1R (P43220 24-463): as the sequence (P43220 24-463) above

What is called Ki is the equilibrium dissociation constant of an inhibitor or competing ligand from its target. Broadly, the EC50 is the concentration that produces a half-maximal response. A word on the Emax: it is the greatest response seen or fitted, relative to the assay's reference. As for `CCCCCCCCCCCC(=O)N[C@@H](CCC(=O)NCCOCCOCC(=O)NCCOCCOCC(=O)NCCCC[C@H](NC(=O)CNC(=O)CNC(=O)[C@H](CCC(=O)O)NC(=O)[C@@H](NC(=O)[C@H](CC(C)C)NC(=O)[C@](C)(Cc1ccc(O)cc1)NC(=O)[C@@H](CCC(=O)O)NC(=O)[C@@H](NC(=O)[C@H](Cc1ccccc1)NC(=O)[C@H](CCC(=O)O)NC(=O)C(C)(C)NC(=O)[C@H](CCC(N)=O)NC(=O)[C@H](C)NC(=O)[C@H](CCCCNC(=O)COCCOCCNC(=O)COCCOCCNC(=O)CC[C@H](NC(=O)CCCCCCCCCCC)C(=O)O)NC(=O)[C@H](CCCN)NC(=O)[C@H](CC(=O)O)NC(=O)[C@H](CC(C)C)NC(=O)[C@](C)(CC(C)C)NC(=O)[C@@H](NC(=O)[C@H](CO)NC(=O)[C@H](Cc1ccncc1)NC(=O)[C@H](CC(=O)O)NC(=O)[C@H](CO)NC(=O)[C@@H](NC(=O)[C@](C)(Cc1ccccc1F)NC(=O)[C@@H](NC(=O)CNC(=O)[C@H](CCC(=O)O)NC(=O)C(C)(C)NC(=O)[C@@H](N)Cc1ccc(O)cc1)[C@@H](C)O)[C@@H](C)O)[C@@H](C)CC)[C@@H](C)CC)[C@@H](C)CC)C(=O)N[C@@H](CO)C(=O)N[C@@H](CO)C(=O)NCC(=O)N[C@@H](C)C(=O)N1CCC[C@H]1C(=O)N1CCC[C@H]1C(=O)N1CCC[C@H]1C(=O)N[C@@H](CO)C(N)=O)C(=O)O` [Example 5], the Ki in assay [1] came to 0.154 nM; in assay [2], 0.0309 nM. The EC50 is 0.372 nM at hGIPR (0.1% bovine casein and 1.0% human serum albumin, geometric mean); over 9950 nM on hGCGR (setting [4]); over 9150 nM at hGCGR (cAMP, incubated at 37° C., 0.1% bovine casein (no human serum albumin), geometric mean); 4.78 nM at hGLP-1R (0.1% bovine casein and 1.0% human serum albumin, 37° C.); 0.057 nM at hGLP-1R (cAMP, incubated at 37° C., 0.1% bovine casein (no human serum albumin)). Further, the Emax on hGIPR (setting [3]) came out at 91.2 ± 3.65%.
`CC[C@H](C)[C@H](NC(=O)[C@H](CC(C)C)NC(=O)[C@](C)(Cc1ccc(O)cc1)NC(=O)[C@H](CCCCNC(=O)COCCOCCNC(=O)CCCCCNC(=O)CC[C@H](NC(=O)CCCCCCCCCCCCC(=O)O)C(=O)O)NC(=O)[C@@H](NC(=O)[C@H](Cc1ccccc1)NC(=O)[C@H](CCCN)NC(=O)C(C)(C)NC(=O)[C@H](CCC(N)=O)NC(=O)[C@H](C)NC(=O)[C@H](CCC(N)=O)NC(=O)[C@H](CCCN)NC(=O)[C@H](CC(=O)O)NC(=O)[C@H](CC(C)C)NC(=O)[C@](C)(CC(C)C)NC(=O)[C@@H](NC(=O)C(C)(C)NC(=O)[C@H](Cc1ccncc1)NC(=O)[C@H](CC(=O)O)NC(=O)[C@H](CO)NC(=O)[C@@H](NC(=O)[C@](C)(Cc1ccccc1F)NC(=O)[C@@H](NC(=O)CNC(=O)[C@H](CCC(=O)O)NC(=O)C(C)(C)NC(=O)[C@@H](N)Cc1ccc(O)cc1)[C@@H](C)O)[C@@H](C)O)[C@@H](C)CC)[C@@H](C)CC)C(=O)N[C@@H](CCCCNC(=O)COCCOCCNC(=O)CCCCCNC(=O)CC[C@H](NC(=O)CCCCCCCCCCCCC(=O)O)C(=O)O)C(=O)NCC(=O)NCC(=O)N1CCC[C@H]1C(=O)N[C@@H](CO)C(=O)N[C@@H](CO)C(=O)NCC(=O)N[C@@H](C)C(=O)N1CCC[C@H]1C(=O)N1CCC[C@H]1C(=O)N1CCC[C@H]1C(=O)N[C@@H](CO)C(N)=O` [Example 449]: the Ki in assay [1] was 0.201 nM; in assay [2] it was 0.0133 nM. The Emax at hGIPR (HEK293, cAMP, 0.1% bovine casein and 1.0% human serum albumin) was 92.1%; at hGLP-1R (HEK293, cAMP, 37° C., 0.1% bovine casein, arithmetic mean), 112%. Further, the half-maximal effective concentration (EC50) at hGIPR (setting [5]) is 0.0102 nM; on hGIPR (cAMP, 0.1% bovine casein and 1.0% human serum albumin, geometric mean (SEM, n)), 0.595 nM; on hGCGR (setting [6]), over 9950 nM; on hGCGR (cAMP, 37° C., 0.1% bovine casein and 1.0% human serum albumin, geometric mean (SEM, n)), over 9950 nM; at hGLP-1R (setting [7]) it was 0.16 nM.
Consider `CCCCCCCCCCCC(=O)N[C@@H](CCC(=O)NCCOCCOCC(=O)NCCOCCOCC(=O)NCCCC[C@H](NC(=O)[C@H](CCCN)NC(=O)[C@H](CC(=O)O)NC(=O)[C@H](CC(C)C)NC(=O)[C@](C)(CC(C)C)NC(=O)[C@@H](NC(=O)[C@H](CO)NC(=O)[C@H](CCCCNC(=O)COCCOCCNC(=O)COCCOCCNC(=O)CC[C@H](NC(=O)CCCCCCCCCCC)C(=O)O)NC(=O)[C@H](CC(=O)O)NC(=O)[C@H](CO)NC(=O)[C@@H](NC(=O)[C@](C)(Cc1ccccc1F)NC(=O)[C@@H](NC(=O)CNC(=O)[C@H](CCC(=O)O)NC(=O)C(C)(C)NC(=O)[C@@H](N)Cc1ccc(O)cc1)[C@@H](C)O)[C@@H](C)O)[C@@H](C)CC)C(=O)N[C@@H](C)C(=O)N[C@@H](CCC(N)=O)C(=O)NC(C)(C)C(=O)N[C@@H](CCC(=O)O)C(=O)N[C@@](C)(Cc1ccccc1)C(=O)N[C@H](C(=O)N[C@H](CCC(=O)O)C(=O)N[C@@](C)(Cc1ccc(O)cc1)C(=O)N[C@@H](CC(C)C)C(=O)N[C@H](C(=O)N[C@@H](CCC(=O)O)C(=O)NCC(=O)NCC(=O)N1CCC[C@H]1C(=O)N[C@@H](CO)C(=O)N[C@@H](CO)C(=O)NCC(=O)N[C@@H](C)C(=O)N1CCC[C@H]1C(=O)N1CCC[C@H]1C(=O)N1CCC[C@H]1C(=O)N[C@@H](CO)C(N)=O)[C@@H](C)CC)[C@@H](C)CC)C(=O)O` [Example 293] (H-Y[Aib]EGT[αMePhe(2-F)]TSDK([AEEA-AEEA-γGlu-Lauroyl])SI[αMeL]LD[Orn]K([AEEA-AEEA-γGlu-Lauroyl])AQ[Aib]E[αMeF]I[dE][αMeY]LIEGGPSSGAPPPS-NH2), for which the results for the Ki in assay [1] and in assay [2] were 0.211 nM and 0.022 nM, respectively. In addition, the Emax on hGIPR (setting [3]) amounted to 96.6%; on hGLP-1R (HEK293, 0.1% bovine casein and 1.0% human serum albumin, 37° C.), 99.4%. In addition, the EC50 on hGIPR (setting [5]) was 0.00915 nM; at hGCGR (setting [4]), over 9950 nM; at hGCGR (setting [6]) it was over 9950 nM; at hGLP-1R (setting [7]), 0.102 nM.
